Source: patent US8969549B2, “Antioxidant small molecules aimed at targeting metal-based oxidative stress in neurogenerative disorders” (Texas Christian University, priority 2013, dated 2015)

Key:
[1] = log K constants with Cu^II; format: binding
Source text: (§1) The ligand is the backbone to PCTA, a potential MRI contrast agent explored in recent years and has been repurposed for Applicant's work.

[2] = log K constants with Zn^II; format: binding
Source text: as §1

[3] = ABTS radical assay standardized against Trolox; format: biochemical; conditions: ligand concentration 100 μM
FRDA cells [4] = experiment: Calcein AM viability assay with BSO; format: cell-based, human; conditions: Homo sapiens, 48 hour BSO 1 mM; for viability at 0.001 µM: compound 1 nM final, read-out: cell viability compared to untreated control cells
Procedure: (§2) FIG. 5 is a graph showing a Calcien AM viability assay of FRDA cells after 48 hour exposure to BSO [1 mM] with 1-4 [1 nM final].
(§3) FIG. 10 is a graph showing Calcein AM viability assay of FRDA cells after 48 hour exposure to BSO [1 mM] followed by addition of 2 [various concentrations].
(§4) FRDA cells have higher levels of ROS due to mitochondrial misfunction associated with frataxin expression and therefore serve as a good model for ROS protection. […] Calcein AM, a non-fluorescent, hydrophobic compound that easily permeates intact, live cells, was used as an indicator for cell viability.
(§5) This dose response is visualized in the fluorescent cell images shown in FIG. 11 with increased cell survival corresponding to increasing 2 in the nM range.

[5] = DPPH radical quenching assay; format: biochemical
Source text: Compound 2 (Chart 2) exists largely as the pyridol tautomer as confirmed by NMR. The reactivity of pyridol/pyridone based compounds such as chelidamic acid have shown reactivity with OH radicals in solution to form bis-pyridones and is a different mechanism than pyridine based compounds such as 1 (Chart 2). This reactivity is attributed to the enhanced antioxidant capacity observed. Chelidamic acid is the pyridone congener to the starting material used to produce 1. Therefore similar methodologies to produce 2 in gram scale quantities were employed.
As radicals are one product of miscompartmentalized metal ions, radical scavenging capability of compounds 1-3 (Chart 4) was tested using the DPPH assay. DPPH (2,2-diphenyl-1-picrylhydrazyl), is a dark purple (λmax=540 nm), stable free radical in solution that can be reduced to DPPHH in the presence of molecules with radical scavenging activity. This process results in a color change from dark purple to light yellow and can be followed spectroscopically by the decrease of the band at 540 nm. Applicants have, therefore, utilized this method to measure radical scavenging capability of their own organic molecules. BHT (butylhydroxytoluene) was used as a positive control due to its known antioxidant properties.
DPPH stock solution was prepared by dissolving 25 mg in 100 mL of absolute EtOH. The working radical solution was prepared by dilution with absolute EtOH to an absorbance of 1.3 at 512 nm. Stock solutions of the compounds tested were dissolved in DI H2O and EtOH 95% respectively and serial dilutions were made to get different concentrations. For the analysis 2 mL of the solutions were incubated with 2 mL of DPPH working solutions in the dark for 24 h. as well as 2 mL of DPPH working solution with 2 mL of H2O or EtOH to serve as blank. Analysis of the solutions was performed as follows: 1 mL of the sample solution was diluted with 1 mL of H2O shaken and the absorbance was measured at 515 nm.

MTT cytotoxicity assay = format: cell-based; conditions: mouse, HT-22 hippocampal neuronal cells, HT-22 cells
Procedure: As these compounds show potential for future in vivo studies, the 3-(4,5-dimethythiazol-2-yl)-2,5-diphenyl tetrazolium bromide (MTT) assay was performed in order to test compounds 2, 3 of Chart 4 for cytotoxicity with HT-22 cells, which is a hippocampal neuronal cell line extracted from mice. This is a colorimetric assay that measures the mitochondrial activity of living cells in which MTT crosses into the mitochondria where it is reduced to media insoluble formazan (dark purple), which is later solubilized in DMSO and measured spectroscopically (λmax=540 nm). Since the reduction of MTT can only occur in living cells with undamaged mitochondria, this is a good assay to measure cell proliferation and cytotoxicity.
For the biological assays mouse hippocampal HT-22 cell line was used, incubated them at 37° C. in a humidified atmosphere 5% CO2, with Dulbecco's Modified Eagle Medium (500 ml) containing penicillin/streptomycin 100× (5 ml), Glutamine (100 mM, 5 ml), charcoal strip fetal bovine serum. […]
(3-(4,5-dimethylthiazol-2-yl)-2,5-diphenyltetrazolium bromide) cells were seeded in a 96 well plate with a density of 5000 cells per well (in 100 μL per well). […] Media is discarded again and 100 μL of DMSO are added to each well, rocked for 5 minutes and the absorbance (A510) was measured using a Molecular Devices Kinetic Microplate Reader.

Aβ1-40 [6] = experiment: Turbidity assay of metal-induced amyloid aggregation; format: biochemical; conditions: for disaggregation of pre-formed metal-induced Aβ1-40 aggregates (turbidity): copper(II) or zinc(II) aggregates, ligand added afterwards
Source text: Metal ions (copper and zinc) bind to a histidine rich domain in amyloid producing Aβ in the form of insoluble plaques. This process has been comprehensively studied and described in a number of recent reviews. The aggregation of amyloid can be followed by simple spectroscopic techniques such as turbidity and tyrosine fluorescence studies. These methods were used to investigate the ability of 1 to dissociate pre-formed amyloid aggregates upon addition of metal ions, as well as prevent amyloid aggregation.
Metal ions bind to a histidine rich domain in amyloid producing Aβ in the form of insoluble plaques. This process has been extensively studied and described in a number of recent reviews.

Aβ1-40 [7] = experiment: Tyr^10 fluorescence of Aβ1-40; format: biochemical
Source text: FIG. 2 is a graph showing the addition of ligands 1-4 to aggregated Aβ results in reconstitution of Tyr^10 fluorescence which was decreased due to aggregate formation.
To further determine the capability of 1 to prevent or disrupt metal-ion induced amyloid aggregation, Applicant's studied Tyr fluorescence intensity. Recent reports have also utilized the natural fluorescence of the native Tyr^10 in the Aβ1-40 sequence to study the conformational dynamics of amyloid folding as it relates to AD and/or production of H2O2. As Tyr^10 is located within proximity to the metal binding pocket in Aβ1-40 the fluorescence intensity of the phenolic side chain decreases during the folding process due to environmental changes that occur locally. This work was supported by circular dichroism spectra, which verified that fluorescence intensity decreased as the conformation of amyloid changed to beta-sheets. […] Applicant's hypothesis was that Tyr fluorescence intensity should be restored to control levels upon addition of compounds 1-4 (Chart 1) to a solution of pre-formed metal aggregates, as shown below in FIG. 2. […] Similar results were also obtained for amyloid samples co-incubated with 1-4 prior to metal ion addition.
The macrocyclic compound 2 (Chart 2) is also a chelator capable of preventing metal-induced amyloid formation as well as disaggregation. Metal ions bind to a histidine rich domain in amyloid producing Aβ in the form of insoluble plaques. This process has been extensively studied and described in a number of recent reviews. […] Moreover, amyloid aggregates formed by metal ion co-incubation can be disaggregated by the addition of compounds 1 or 2 (FIG. 12b).

FRDA cells [8] = experiment: DCFH-DA ROS assay with BSO; format: cell-based, human
Procedure: FIG. 6 is a graph showing DCFH-DA fluorescent response in FRDA cells after 12 hours exposure to BSO [1 mM] with 1-4 [4 nM].
FIG. 7 is a graph of DCFH-DA fluorescent response in FRDA cells after 12 hours exposure to BSO [1 mM] showing dose dependence with 1.
FIG. 9 is a graph of DCFH-DA fluorescent response in FRDA cells after 12 hours exposure to BSO [1 mM] showing dose dependence with 1 and 2.
The antioxidant activity of compound 1 compared to compounds 2-3 (Chart 1) was then studied using the cell-permeable fluorophore 2,7′-Dichlorodihydrofluorescin diacetate (DCFH-DA) as an indicator for ROS. DCFH-DA diffuses into cells and is deacetylated by cellular esterases to non-fluorescent 2′,7′-Dichlorodihydrofluorescin (DCFH). This species is subsequently oxidized to the highly fluorescent 2′,7′-Dichlorodihydrofluorescein (DCF) species in the presence of ROS. The fluorescent intensity is directly proportional to the amount of ROS present in cell cytosol. BSO (2-amino-4-(butylsulfonimidoyl)butanoic acid) was used to inhibit the first step of de novo glutathione synthesis, allowing us to observe the elevated intra-cellular [ROS] are thereby observed.
Cellular studies were carried out to evaluate the intra-cellular antioxidant efficacy and toxicity of compound 2 (Chart 2) compared to 1 using the cell-permeable fluorophore 2,7′-dichlorodihydrofluorescin diacetate (DCFH-DA) as an indicator for ROS. DCFH-DA diffuses into cells and is deacetylated by cellular esterases to non-fluorescent 2′,7′-dichlorodihydrofluorescin (DCFH) which is subsequently oxidized to the highly fluorescent 2′,7′-dichlorodihydrofluorescein (DCF) species in the presence of ROS. The fluorescence intensity is directly proportional to the amount of ROS present in cell cytosol.^11 BSO (2-amino-4-(butylsulfonimidoyl)butanoic acid) is a commonly used model for oxidative stress via inhibition of cytosolic glutathione synthesis resulting in elevated intra-cellular [ROS] and an increased fluorescent signal in the presence of DCFH (FIG. 9).

[9] = LA/DHLA; cited from earlier work
[10] = Cu-ascorbate redox system with coumarin-3-carboxylic acid (CCA); format: biochemical; conditions: added after two minutes co-incubation with CCA
Source text: As increased levels of ROS are associated with AD, Applicant's set out to investigate the antioxidant character of 1 compared to the heterocycles 2 and/or 3. […] Moreover, many of the pathways proposed to produce ROS leading to AD pathology involve metal ions. Applicant's therefore utilized the Cu-ascorbate redox system, Scheme 1, as a model to determine if the ligands could halt copper based redox activity under aerobic conditions:
Faller and co-workers employed this system to investigate the redox chemistry of amyloid systems with Cu. Coumarin-3-carboxylic acid (CCA), which generates fluorescent 7-hydroxy-CCA in the presence of hydroxyl radicals, was used to quantify the reduction of oxygen by copper redox-cycling in the presence of ascorbate.

[11] = Calcein AM viability assay with BSO; format: cell-based, human; conditions: human, FRDA cells (fibroblasts from a Friedreich's Ataxia patient), BSO 1 mM alone, read-out: cell viability compared to control cells, BSO-alone
Procedure: as §2, §3, §4, §5

For `O=C(O)CN(CCN(CC(=O)O)CC(=O)O)CC(=O)O` [4 (Chart 1)], the “log K constants Cu^II” value [1] was 9.18, the “log K constants Zn^II” value [2] was 8.41 and the “Trolox equivalents (ABTS radical)” value [3] was 0.15 Trolox equivalents. For the same compound, the viability at 0.001 µM (FRDA cells [4]) was > 60%.
With `O=C(NCCNc1nc(N2CCNCCNCCNCC2)nc(N2CCNCCNCCNCC2)n1)c1cc2ccccc2oc1=O` [3 (Chart 4), N-(2-((4,6-di(1,4,7,10-tetraazacyclododecan-1-yl)-1,3,5-triazin-2-yl)amino)ethyl)-2-oxo-2H-chromene-3-carboxamide] the “quenching of the DPPH radical” value ([5]; concentration dependent, concentrations not given) was 52-64% and the EC50 at 48 h (MTT cytotoxicity assay) was 125 µM.
For `C1CNCCNCCNCCN1` [cyclen, 1,4,7,10-tetraazacyclododecane, reference compound], the “quenching of the DPPH radical” value ([5]; 1250 μM) was “no activity”.
With `C1CNCCNCCNCCN1` [Compound 2 (Chart 1)] the “log K constants Cu^II” value [1] was 23, the “log K constants Zn^II” value [2] was 16 and the “Trolox equivalents (ABTS radical)” value [3] was 0.23 Trolox equivalents. For the same compound, the “disaggregation of pre-formed metal-induced Aβ1-40 aggregates (turbidity)” value (Aβ1-40 [6]) was “Aβ dis-aggregating agents, which Applicant's studies corroborate” and the viability at 0.001 µM (FRDA cells [4]) was > 60%.
With `Oc1cc2nc(c1)CNCCNCCNC2` [Compound 2 (Chart 2)] the “reconstitution of Tyr^10 fluorescence of aggregated Aβ1-40” value (Aβ1-40 [7]; ligand added to pre-formed metal aggregates) was “equally effective”, the “prevention of loss of Tyr^10 fluorescence of Aβ1-40” value (Aβ1-40 [7]; ligand co-incubated prior to metal ion addition, 24 hours) was “equally effective” and the “ability to reduce free radicals in solution (DPPH) versus 1” value [5] was “enhanced ability to reduce free radicals in solution”. The “decrease of [ROS] compared to the untreated cells” value (“decrease of [ROS]” for short) (FRDA cells [8]; 1.25 nM) was 33%, the “decrease of [ROS]” value (FRDA cells [8]; 12.5 nM) was 58% and the “decrease of [ROS]” value (FRDA cells [8]; 125 nM) was 75%. The “decrease of [ROS]” value (FRDA cells [8]; 1.25 μM) was 87%, the “disaggregation of pre-formed metal-induced Aβ1-40 aggregates (turbidity)” value (Aβ1-40 [6]) was “disaggregated” and the “prevention of metal-induced Aβ1-40 aggregation (turbidity)” value (Aβ1-40 [6]; ligand co-incubated with amyloid before copper(II) or zinc(II) addition) was “prevents formation of aggregations”. For the same compound, the EC50 (FRDA cells [4]; read-out: EC50 protection against BSO assault (Calcein AM)) was 0.0315 ± 0.00496 µM.
In the case of `O=C(O)CCCCC1CCSS1` (stereo not drawn) [LA, α-lipoic acid], the redox potential [9] is listed as −320 mV.
In the case of “Aβ1-40: beta-amyloid peptide 1-40 with histidine rich metal binding site [reference compound]”, the “7-hydroxy-CCA signal after addition to running Cu-ascorbate system” value [10] is reported as “leveling of the 7-hydroxy-CCA signal”.
With `CCCCS(=N)(=O)CCC(N)C(=O)O` (centres unmarked) [BSO, 2-amino-4-(butylsulfonimidoyl)butanoic acid, reference compound] the “increase in ROS, BSO-treated cells (positive control)” value (FRDA cells [8]; BSO 1 mM alone) was ~1.8 fold and the viability at 48 h, 1 mM [11] was ~45%.
